According to patent US20260258050A1, “IMMUNOMODULATOR” (HITGEN INC., priority 2023, published 2026):

target: T1, Human IL-17A (Homo sapiens, UniProt Q16552); assay: IL-17A enzyme-linked immunosorbent assay (competitive ELISA, IL-17A/IL-17Ra receptor-ligand binding); set-up: purchased Sino Biological Inc. 12047-H07B; conditions: human IL-17A coated plate, human IL-17Ra, read-out: IC50, inhibitory activity of compounds on human IL-17A
T1 sequence (Q16552 20-155 limits assumed): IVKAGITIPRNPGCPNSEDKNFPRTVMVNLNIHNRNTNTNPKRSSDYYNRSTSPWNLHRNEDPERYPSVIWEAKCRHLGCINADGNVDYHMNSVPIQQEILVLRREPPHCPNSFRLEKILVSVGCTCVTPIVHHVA
Summary of the method: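 Competitive ELISA with plates coated with human IL-17A at 0.2 μg/ml, blocked with 5% skim milk. Compound pre-incubated with IL-17A 10 min at 25 °C, then 16 nM IL-17Ra stock added for 30 min. Bound receptor detected by anti-Fc HRP/TMB, A450. IC50 from variable-slope fit of blank-corrected residual activity.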

| IC50 [µM] | SMILES |
| --- | --- |
| ≤ 0.05 | COCCCn1nccc1C(=O)N[C@H](C(=O)Nc1cc2c(cc1F)-c1c(n[nH]c1C)CCOC2)C(C1CC1)C1CC1 [compound 58] |
| ≤ 0.05 | Cc1[nH]nc2c1-c1cc(F)c(NC(=O)[C@@H](NC(=O)c3ccnn3CC3CC3)C(C3CC3)C3CC3)cc1COCC2 [compound 59] |
| ≤ 0.05 | Cc1[nH]nc2c1-c1cc(F)c(NC(=O)[C@@H](NC(=O)c3ccnn3CC3CCC3)C(C3CC3)C3CC3)cc1COCC2 [compound 60] |
| ≤ 0.05 | CSCCn1nccc1C(=O)N[C@H](C(=O)Nc1cc2c(cc1F)-c1c(n[nH]c1C)CCOC2)C(C1CC1)C1CC1 [compound 61] |
| ≤ 0.05 | CCCn1nccc1C(=O)N[C@H](C(=O)Nc1cc2c(cc1F)-c1c(n[nH]c1C)CCOC2)C(C1CC1)C1CC1 [compound 62] |
| ≤ 0.05 | Cc1[nH]nc2c1-c1cc(F)c(NC(=O)[C@@H](NC(=O)c3ccnn3CCC(F)F)C(C3CC3)C3CC3)cc1COCC2 [compound 65] |
| ≤ 0.05 | [2H]C([2H])(C1CC1)n1nccc1C(=O)N[C@H](C(=O)Nc1cc2c(cc1F)-c1c(n[nH]c1C)CCOC2)C(C1CC1)C1CC1 [compound 76] |
| ≤ 0.05 | Cc1[nH]nc2c1-c1cc(F)c(NC(=O)[C@@H](NC(=O)c3ccnn3CCC(O)C(F)(F)F)C(C3CC3)C3CC3)cc1COCC2 (stereo partly shown) [compound 81] |
| ≤ 0.05 | Cc1[nH]nc2c1-c1cc(F)c(NC(=O)[C@@H](NC(=O)c3ccnn3CCCC(F)(F)F)C(C3CC3)C3CC3)cc1COCC2 [compound 84] |
| ≤ 0.05 | Cc1[nH]nc2c1-c1cc(F)c(NC(=O)[C@@H](NC(=O)c3ccnn3CCCF)C(C3CC3)C3CC3)cc1COCC2 [compound 86] |
| ≤ 0.05 | Cc1[nH]nc2c1-c1cc(F)c(NC(=O)[C@@H](NC(=O)c3ccnn3CC(C)(F)F)C(C3CC3)C3CC3)cc1COCC2 [compound 87] |
| 0.05 to 0.15 | Cc1[nH]nc2c1-c1cc(F)c(NC(=O)[C@@H](NC(=O)c3ccnn3CCC(F)(F)F)C(C3CC3)C3CC3)cc1COCC2 [compound 88] |
| ≤ 0.05 | [2H]C([2H])([2H])C([2H])(n1nccc1C(=O)N[C@H](C(=O)Nc1cc2c(cc1F)-c1c(n[nH]c1C)CCOC2)C(C1CC1)C1CC1)C([2H])([2H])[2H] [compound 89] |
| ≤ 0.05 | [2H]C([2H])([2H])C([2H])([2H])n1nccc1C(=O)N[C@H](C(=O)Nc1cc2c(cc1F)-c1c(n[nH]c1C)CCOC2)C(C1CC1)C1CC1 [compound 90] |
| ≤ 0.05 | Cc1[nH]nc2c1-c1cc(F)c(NC(=O)[C@@H](NC(=O)c3ccnn3CCOC(C)C)C(C3CC3)C3CC3)cc1COCC2 [compound 98] |
| 0.05 to 0.15 | COCC(COC)n1nccc1C(=O)N[C@H](C(=O)Nc1cc2c(cc1F)-c1c(n[nH]c1C)CCOC2)C(C1CC1)C1CC1 [compound 99] |
| ≤ 0.05 | CCOCCn1nccc1C(=O)N[C@H](C(=O)Nc1cc2c(cc1F)-c1c(n[nH]c1C)CCOC2)C(C1CC1)C1CC1 [compound 100] |
| ≤ 0.05 | Cc1[nH]nc2c1-c1cc(F)c(NC(=O)[C@@H](NC(=O)c3ccnn3C[C@@H]3C[C@H]3F)C(C3CC3)C3CC3)cc1COCC2 [compound 101] |
| ≤ 0.05 | Cc1[nH]nc2c1-c1cc(F)c(NC(=O)[C@@H](NC(=O)c3ccnn3CCOC3CC3)C(C3CC3)C3CC3)cc1COCC2 [compound 102] |
| ≤ 0.05 | Cc1[nH]nc2c1-c1cc(F)c(NC(=O)[C@@H](NC(=O)c3ccnn3CCOCC(F)(F)F)C(C3CC3)C3CC3)cc1COCC2 [compound 104] |
| ≤ 0.05 | Cc1[nH]nc2c1-c1cc(F)c(NC(=O)[C@@H](NC(=O)c3cnnn3CCOC(F)F)C(C3CC3)C3CC3)cc1COCC2 [compound 108] |
| ≤ 0.05 | Cc1[nH]nc2c1-c1cc(F)c(NC(=O)[C@@H](NC(=O)c3ccnn3CCOC(C)(C)C)C(C3CC3)C3CC3)cc1COCC2 [compound 113] |

| IC50 [µM] | SMILES |
| --- | --- |
| ≤ 0.05 | Cc1[nH]nc2c1-c1cc(F)c(NC(=O)[C@@H](NC(=O)c3ccnn3CC3(C#N)CC3)C(C3CC3)C3CC3)cc1COCC2 [compound 114] |
| ≤ 0.05 | Cc1[nH]nc2c1-c1cc(F)c(NC(=O)[C@@H](NC(=O)c3ccnn3CC3COC3)C(C3CC3)C3CC3)cc1COCC2 [compound 115] |
| ≤ 0.05 | Cc1[nH]nc2c1-c1cnc(NC(=O)[C@@H](NC(=O)c3ccnn3CCCF)C(C3CC3)C3CC3)cc1COCC2 [compound 124] |
| ≤ 0.05 | Cc1[nH]nc2c1-c1cc(F)c(NC(=O)[C@@H](NC(=O)c3ccnn3C(C)C)C(C3CC3)C3CC3)cc1CN(CC1CC1)CC2 [compound 166] |
| ≤ 0.05 | Cc1[nH]nc2c1-c1cc(F)c(NC(=O)[C@@H](NC(=O)c3ccnn3C(C)C)C(C3CC3)C3CC3)cc1CN(C1CCOCC1)C(=O)C2 [compound 167] |
| ≤ 0.05 | Cc1[nH]nc2c1-c1cc(F)c(NC(=O)[C@@H](NC(=O)c3ccnn3C(C)C)C(C3CC3)C3CC3)cc1CN(C1CCC(F)(F)CC1)C(=O)C2 [compound 168] |
| ≤ 0.05 | Cc1[nH]nc2c1-c1cc(F)c(NC(=O)[C@@H](NC(=O)c3ccnn3C(C)C)C(C3CC3)C3CC3)cc1CN(C1CC(F)(F)C1)C(=O)C2 [compound 169] |
| ≤ 0.05 | Cc1[nH]nc2c1-c1cc(F)c(NC(=O)[C@@H](NC(=O)c3ccnn3C(C)C)C(C3CC3)C3CC3)cc1CN(C1CCC1)C(=O)C2 [compound 170] |
| ≤ 0.05 | Cc1[nH]nc2c1-c1cc(F)c(NC(=O)[C@@H](NC(=O)c3ccnn3C(C)C)C(C3CC3)C3CC3)cc1CN(C1CCOCC1)CC2 [compound 174] |
| ≤ 0.05 | Cc1[nH]nc2c1-c1cc(F)c(NC(=O)[C@@H](NC(=O)c3ccnn3C(C)C)C(C3CC3)C3CC3)cc1CN(C1CC(F)(F)C1)CC2 [compound 176] |
| ≤ 0.05 | Cc1[nH]nc2c1-c1cnc(NC(=O)[C@@H](NC(=O)c3ccnn3C(C)C)C(C3CC3)C3CC3)cc1CN(Cc1ccccc1)C(=O)C2 [compound 182] |
| ≤ 0.05 | Cc1[nH]nc2c1-c1cnc(NC(=O)[C@@H](NC(=O)c3ccnn3C(C)C)C(C3CC3)C3CC3)cc1CN(C1CC1)C(=O)C2 [compound 191] |
| ≤ 0.05 | Cc1[nH]nc2c1-c1cnc(NC(=O)[C@@H](NC(=O)c3ccnn3C(C)C)C(C3CC3)C3CC3)cc1CN(CC(F)F)C(=O)C2 [compound 192] |
| ≤ 0.05 | Cc1[nH]nc2c1-c1cnc(NC(=O)[C@@H](NC(=O)c3ccnn3C(C)C)C(C3CC3)C3CC3)cc1CN(CC(C)(F)F)C(=O)C2 [compound 193] |
| ≤ 0.05 | Cc1[nH]nc2c1-c1cnc(NC(=O)[C@@H](NC(=O)c3ccnn3C(C)C)C(C3CC3)C3CC3)cc1CN(C1CC(F)(F)C1)C(=O)C2 [compound 194] |
| ≤ 0.05 | Cc1[nH]nc2c1-c1cnc(NC(=O)[C@@H](NC(=O)c3ccnn3C(C)C)C(C3CC3)C3CC3)cc1CN(C(C)C)C(=O)C2 [compound 195] |
| ≤ 0.05 | CC(=O)N1CCc2n[nH]c(C)c2-c2cnc(NC(=O)[C@@H](NC(=O)c3ccnn3C(C)C)C(C3CC3)C3CC3)cc2C1 [compound 196] |
| ≤ 0.05 | Cc1[nH]nc2c1-c1cnc(NC(=O)[C@@H](NC(=O)c3ccnn3C(C)C)C(C3CC3)C3CC3)cc1CN(C1CC1)CC2 [compound 198] |
| ≤ 0.05 | Cc1[nH]nc2c1-c1cnc(NC(=O)[C@@H](NC(=O)c3ccnn3C(C)C)C(C3CC3)C3CC3)cc1CN(CC(C)(F)F)CC2 [compound 199] |
| ≤ 0.05 | Cc1[nH]nc2c1-c1cnc(NC(=O)[C@@H](NC(=O)c3ccnn3C(C)C)C(C3CC3)C3CC3)cc1CN(C(C)C)CC2 [compound 200] |
| ≤ 0.05 | Cc1[nH]nc2c1-c1cnc(NC(=O)[C@@H](NC(=O)c3ccnn3C(C)C)C(C3CC3)C3CC3)cc1CN(C1CCC1)CC2 [compound 201] |
